Laboratory results: US5462927A, “Peptides aiding nerve regeneration” (The Administrators of the Tulane Educational Fund, priority 1992, dated 1995)
Ends that are not written are not given here.

Tested on: crushed sciatic nerve
Experiment: Sensorimotor function test (sciatic nerve regeneration assay, foot-flick response to thermal pain)
Format: in vivo, rat
Settings: s.c. every 24 hr for approximately 20-25 days; head prints only 'μG/24 HRS'; vs 0.9% NaCl control
Method: Female, Sprague-Dawley rats (Charles River Breeding Labs) were used at an age of 7-8 weeks (120-140 g). Under ether anesthesia, the right sciatic nerve was carefully exposed and crushed with constant pressure, hemostatic forceps for 30 sec prior to closure and suturing of the incision. After surgery, the animals were randomly assigned to treatment groups of 10. The test peptides were administered s.c. in 0.9% NaCl in a vol of 0.1 ml. NaCl (0.9%) served as the control. Injections were started immediately after surgery and given every 24 hr thereafter for approximately 20-25 days. The criterion of sciatic nerve regeneration was based on the recovery of the foot-flick response to thermal pain. Beginning 48 hr after surgery, the rats were tested five days a week for the ability to withdraw, from a heat source, the paw innervated by the crushed nerve. All sensorimotor testing was performed between 1:00 and 3:00 p.m. Specifically, the rat was immobilized by wrapping in a towel, and the sole of the lesioned limb was placed over the aperture of a modified d'Amour apparatus. The time required to withdraw the foot was recorded to the nearest 0.1 of sec using a digital stopwatch. If no response occurred by 5 sec, the test was terminated to avoid tissue damage. The observe measuring the foot-flick response was blind to the treatment group being tested. All animals were acclimatized to the testing procedure prior to surgery. Baseline values were obtained by determining the response time for the unlesioned limb.

Compound | % Reduction of Recovery Time
CCCC[C@H](N)C(=O)N[C@@H](CCC(N)=O)C(=O)N[C@@H](Cc1c[nH]cn1)C(=O)N[C@@H](Cc1ccccc1)C(=O)N[C@@H](CCCNC(=N)N)C(=O)N[C@@H](Cc1c[nH]c2ccccc12)C(=O)NCC(N)=O [BIM-22010, NLeu--Gln--His--Phe--Arg--Trp--Gly--NH2] | 13%
AQYFRWG-NH2 [BIM-22016, L--Ala--Gln--Tyr--Phe--Arg--Trp--Gly--NH2] | 13%
